# Laboratory results from publication PMC5697638, “Identification of a Potent Phosphoinositide 3‐Kinase Pan Inhibitor Displaying a Strategic Carboxylic Acid Group and Development of Its Prodrugs” (Chemmedchem, 2017).
# Assays:
# [1] = system: PI3K/Akt signaling in NIH3T3 cells; assay: insulin-stimulated Akt phosphorylation, Western blot, NIH3T3 cells; format: cell-based; details: 1 μM insulin for 5 min, immunoblot
# Experimental: Figure 8 Treatment with 64 prodrug inhibited PI3K/Akt signaling. NIH3T3 cells were […] for 12 h and were treated with the indicated concentrations of 37 and 64. Cells were next stimulated with 1 μM insulin for 5 min, and total cell lysates were prepared. Immunoblot analysis was conducted for the expression levels of p‐AKT and GAPDH. The immunoblot is representative of three independent experiments.
# NIH3T3 cells were seeded in a 96‐well plate and starved overnight (ON) with serum‐free DMEM high glucose GlutaMAXTM (Gibco) supplemented with 5000 U mL^−1 penicillin–streptomycin (Gibco). Cells were then incubated for 1 h with increasing concentrations of 64, 37, or DMSO. Subsequently, cells were stimulated for 5 min with 1 μM of insulin (#91077C, Sigma–Aldrich, USA). Cells were lysed and protein extracts were analyzed by western blot to assess the phosphorylation level of Akt on Ser473.
# [2] = biological target: T1, human PI3Kα (PIK3CA/PIK3R1) (Homo sapiens, UniProt P42336); assay: lipid kinase assay (ADP-Glo), PI3Kα; format: biochemical
# T1 construct: purchased ProQinase, Germany 1161‐1165‐1
# Experimental: (§1) In vitro selection, lipid kinase assay: To determine the inhibitory activity of the new molecular entities on PI3K enzyme, a lipid kinase assay was performed: recombinant proteins (30 ng), human PI3Kα (PIK3CA/PIK3R1, #1161‐1165‐1 ProQinase–Germany), hPI3Kβ (PIK3CB wt/PIK3R1, #1168‐1165‐1 ProQinase, Germany), hPI3Kγ (PIK3CG, #1163‐0000‐1 ProQinase, Germany), hPI3Kδ (PIK3CD/PIK3R1, #1162–1165‐1 ProQinase, Germany), hPI3K‐C2α (PIK3C2A, #14‐906 Merck Millipore_Merck KGaA, Germany), hPI3K‐C2β (PIK3C2B, #14‐907 Merck Millipore_Merck KGaA, Germany), hPI3K‐c2γ (PIK3C2G, #1207‐0000‐1 ProQinase, Germany), and hVps34 (PIK3C3, #1160‐0000‐1 ProQinase, Germany), were incubated in kinase buffer {12.5 μL; 20 mM Tris‐HCl pH 7.5, 10 mM MgCl2, 10 μM ATP, 0.05 mg mL^−1 BSA, 0.5 mM EDTA, 5 mM HEPES pH 7.5, for PI3Kα,PI3Kβ, PI3Kγ, PI3Kδ, PI3KC‐2α, and PI3KC‐2γ; 15 mM MnCl2, 5 mM EGTA, 100 μM ATP, 50 mM HEPES pH 7.5, 100 mM NaCl, and 0.03 % CHAPS for PI3K‐C2β and VPS34 {BSA=bovine serum albumin; EDTA=ethylenediaminetetraacetic acid; HEPES=4‐(2‐hydroxyethyl)‐1‐piperazineethanesulfonic acid; EGTA=ethylene glycol‐bis(2‐aminoethylether)‐N,N,N′,N′‐tetraacetic acid; CHAPS=3‐[(3‐cholamidopropyl)dimethylammonio]‐1‐propanesulfonate}. In the reaction, the ATP concentration used for different PI3Ks was defined on the basis of the Michaelis–Menten kinetics of each enzyme, provided by the supplier. Reaction was performed in presence of 0.5 mg mL^−1 lipid micelles (1:1 phosphatidylinositol/phosphatidylserine) and in the absence (DMSO alone) or presence of increasing concentrations of each compound (from 0.1 nM to 30 μM). The mixture was kept at room temperature (RT) for 30 min for PI3Kα, PI3Kβ, PI3Kγ, PI3Kδ, PI3KC‐2α, and PI3KC‐2γ and for 1 h for PI3K‐C2β and PI3K‐C3. The amount of ADP produced in the reaction was measured by using the ADP‐Glo Kinase Assay kit from Promega (#V9102) and a luminescence reader (Glomax multi detection system, Promega, model number 9301‐010).
# The residual PI3K lipid kinase activity in the presence of each molecule at different concentrations was related to the control, intended as the recombinant protein in the presence of DMSO alone and was expressed as a percentage. To derive the IC50 value, all data (% of lipid kinase activity) were plotted on a dose–response curve (Graph Pad software), and the IC50 was calculated by using nonlinear regression fit (equation [log agonist] versus response).
# hVps34 (PIK3C3) = biological target: T2, hVps34 (PIK3C3) (Homo sapiens, UniProt Q8NEB9); assay: lipid kinase assay (ADP-Glo), PI3K-C3; format: biochemical; details: Table 2; mean of at least three determinations, 95 % confidence intervals; read-out: IC50 PI3Kc3
# T2 construct: purchased ProQinase, Germany 1160‐0000‐1
# Experimental: as §1, with “Reaction was performed in presence of 0.5 mg mL^−1 lipid micelles (1:1 phosphatidylinositol/phosphatidylserine) and in the absence (DMSO alone) or presence of increasing concentrations of each compound (from 0.1 nM to 30 μM). The mixture was kept at room temperature (RT) for 30 min for PI3Kα, PI3Kβ, PI3Kγ, PI3Kδ, PI3KC‐2α, and PI3KC‐2γ and for 1 h for PI3K‐C2β and PI3K‐C3. The amount of ADP produced in the reaction was measured by using the ADP‐Glo Kinase Assay kit from Promega (#V9102) and a luminescence reader (Glomax multi detection system, Promega, model number 9301‐010).” left out
# T1 sequence (P42336 whole entry): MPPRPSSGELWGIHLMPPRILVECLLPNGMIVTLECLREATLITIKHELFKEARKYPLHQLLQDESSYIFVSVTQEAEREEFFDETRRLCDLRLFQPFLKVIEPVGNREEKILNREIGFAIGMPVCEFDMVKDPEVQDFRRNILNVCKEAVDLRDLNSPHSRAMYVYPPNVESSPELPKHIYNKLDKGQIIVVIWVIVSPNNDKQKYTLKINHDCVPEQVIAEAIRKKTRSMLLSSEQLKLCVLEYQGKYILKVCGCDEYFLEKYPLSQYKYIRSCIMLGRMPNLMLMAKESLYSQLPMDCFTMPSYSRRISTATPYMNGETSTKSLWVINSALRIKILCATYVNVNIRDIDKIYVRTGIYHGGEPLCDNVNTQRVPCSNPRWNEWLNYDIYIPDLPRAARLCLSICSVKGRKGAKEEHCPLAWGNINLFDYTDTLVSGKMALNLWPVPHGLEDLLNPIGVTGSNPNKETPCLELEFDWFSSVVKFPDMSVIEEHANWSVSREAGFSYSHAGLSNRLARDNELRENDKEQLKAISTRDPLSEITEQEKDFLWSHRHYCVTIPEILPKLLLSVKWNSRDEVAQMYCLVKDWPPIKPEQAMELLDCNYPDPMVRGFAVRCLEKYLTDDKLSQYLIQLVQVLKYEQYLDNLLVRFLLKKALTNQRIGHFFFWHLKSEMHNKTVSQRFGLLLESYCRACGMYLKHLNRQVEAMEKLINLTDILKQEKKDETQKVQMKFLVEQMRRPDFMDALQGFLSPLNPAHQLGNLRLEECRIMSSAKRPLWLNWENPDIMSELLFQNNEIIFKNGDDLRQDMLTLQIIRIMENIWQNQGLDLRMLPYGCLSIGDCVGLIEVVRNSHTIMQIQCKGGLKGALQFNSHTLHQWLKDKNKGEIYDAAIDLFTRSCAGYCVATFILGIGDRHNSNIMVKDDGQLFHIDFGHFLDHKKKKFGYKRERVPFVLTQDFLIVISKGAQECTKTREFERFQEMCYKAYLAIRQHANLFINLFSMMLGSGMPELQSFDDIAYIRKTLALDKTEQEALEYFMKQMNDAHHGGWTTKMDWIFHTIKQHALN
# T1 sequence (P27986 whole entry partner): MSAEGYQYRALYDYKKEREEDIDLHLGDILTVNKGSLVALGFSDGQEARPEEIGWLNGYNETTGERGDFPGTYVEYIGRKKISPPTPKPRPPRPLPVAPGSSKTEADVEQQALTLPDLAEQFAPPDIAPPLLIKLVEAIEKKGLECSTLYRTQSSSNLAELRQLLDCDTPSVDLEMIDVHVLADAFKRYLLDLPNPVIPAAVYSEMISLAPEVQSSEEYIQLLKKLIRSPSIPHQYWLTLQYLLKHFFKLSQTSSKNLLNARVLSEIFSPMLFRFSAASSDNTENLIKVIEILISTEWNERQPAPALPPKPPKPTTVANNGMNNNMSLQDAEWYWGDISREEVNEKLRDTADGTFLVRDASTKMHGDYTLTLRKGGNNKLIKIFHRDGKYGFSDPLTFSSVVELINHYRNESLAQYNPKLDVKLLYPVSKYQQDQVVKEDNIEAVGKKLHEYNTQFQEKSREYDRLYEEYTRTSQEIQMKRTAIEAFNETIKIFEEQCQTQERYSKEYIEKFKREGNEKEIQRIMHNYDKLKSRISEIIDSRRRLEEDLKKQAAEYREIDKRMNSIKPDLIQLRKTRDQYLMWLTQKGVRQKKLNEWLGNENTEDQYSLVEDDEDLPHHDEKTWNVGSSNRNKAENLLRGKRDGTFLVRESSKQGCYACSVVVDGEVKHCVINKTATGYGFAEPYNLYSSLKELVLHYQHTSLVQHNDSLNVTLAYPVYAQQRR
# T2 sequence (Q8NEB9 whole entry): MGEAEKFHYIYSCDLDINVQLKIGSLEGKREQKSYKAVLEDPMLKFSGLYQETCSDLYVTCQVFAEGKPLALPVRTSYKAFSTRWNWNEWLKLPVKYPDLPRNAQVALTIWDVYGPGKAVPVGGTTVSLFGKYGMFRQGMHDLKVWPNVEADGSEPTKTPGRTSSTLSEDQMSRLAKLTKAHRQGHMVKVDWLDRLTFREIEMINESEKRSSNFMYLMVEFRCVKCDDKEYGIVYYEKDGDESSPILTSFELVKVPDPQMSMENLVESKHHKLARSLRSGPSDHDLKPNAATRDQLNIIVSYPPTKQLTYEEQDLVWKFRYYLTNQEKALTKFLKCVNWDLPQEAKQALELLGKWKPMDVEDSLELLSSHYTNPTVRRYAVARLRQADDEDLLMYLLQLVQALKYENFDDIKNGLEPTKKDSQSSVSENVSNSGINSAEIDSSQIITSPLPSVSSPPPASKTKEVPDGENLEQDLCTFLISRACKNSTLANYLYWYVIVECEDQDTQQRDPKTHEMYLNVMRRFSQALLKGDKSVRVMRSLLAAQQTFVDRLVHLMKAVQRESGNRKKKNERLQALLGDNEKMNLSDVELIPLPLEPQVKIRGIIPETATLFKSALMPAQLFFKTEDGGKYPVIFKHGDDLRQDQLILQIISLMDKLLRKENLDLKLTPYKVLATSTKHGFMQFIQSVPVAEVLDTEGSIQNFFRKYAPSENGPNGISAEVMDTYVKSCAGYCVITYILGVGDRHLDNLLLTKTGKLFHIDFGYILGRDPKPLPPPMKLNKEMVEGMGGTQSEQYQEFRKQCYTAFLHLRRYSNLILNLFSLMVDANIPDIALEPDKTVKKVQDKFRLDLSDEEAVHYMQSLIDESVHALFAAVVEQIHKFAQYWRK
smiles,measurement,setting,value
"O=C(O)c1cccc(Cn2cc(-c3cccc4c(=O)cc(N5CCOCC5)[nH]c34)nn2)c1 [Compound 37, 3‐{[4‐(2‐Morpholino‐4‐oxo‐1,4‐dihydroquinolin‐8‐yl)‐1H‐1,2,3‐triazol‐1‐yl]methyl}benzoic acid]",Akt phosphorylation after insulin stimulation,[1],did not decrease Akt phosphorylation
same,IC50,"[2]; Table 2, mean of at least three determinations, 95 % confidence intervals, read-out: IC50 PI3Kα",18 ± 4 nM
same,inhibition at 1 µM,"[2]; determined at 1 μM, at least triplicate, read-out: Inhibitory activity, PI3K isoform α",> 50%
same,IC50,hVps34 (PIK3C3),590 ± 200 nM
"COC(=O)c1cccc(Cn2cc(-c3cccc4c(=O)cc(N5CCOCC5)[nH]c34)nn2)c1 [Compound 64, Methyl 3‐{[4‐(2‐morpholino‐4‐oxo‐1,4‐dihydroquinolin‐8‐yl)‐1H‐1,2,3‐triazol‐1‐yl]methyl}benzoate]",Akt phosphorylation after insulin stimulation,[1],able to inhibit the PI3K‐signaling pathway in a dose‐dependent manner
same,inhibition of PI3Kα activity,[2]; at 100 nM,not able to inhibit PI3Kα activity
